Reference: ChEMBL document CHEMBL1143902, “Design and synthesis of a pyrido[2,3-d]pyrimidin-5-one class of anti-inflammatory FMS inhibitors” (Bioorg Med Chem Lett, 2008)
pIC50: −log10 of the molar value. One block for each molecule: values may come before it.

How the values were obtained:
Macrophage = test: Inhibition of CSF1-induced proliferation of mouse bone marrow derived macrophages
[1] = Metabolic stability in human liver microsomes after 10 mins; type: ADME, Microsome; details: read-out: Stability
[2] = Metabolic stability in rat liver microsomes after 10 mins; type: ADME, Microsome; details: read-out: Stability
[3] = molecular target: T1, Receptor-type tyrosine-protein kinase FLT3 (Homo sapiens, UniProt P36888); test: Inhibition of FLT3
T1 sequence (P36888 whole entry): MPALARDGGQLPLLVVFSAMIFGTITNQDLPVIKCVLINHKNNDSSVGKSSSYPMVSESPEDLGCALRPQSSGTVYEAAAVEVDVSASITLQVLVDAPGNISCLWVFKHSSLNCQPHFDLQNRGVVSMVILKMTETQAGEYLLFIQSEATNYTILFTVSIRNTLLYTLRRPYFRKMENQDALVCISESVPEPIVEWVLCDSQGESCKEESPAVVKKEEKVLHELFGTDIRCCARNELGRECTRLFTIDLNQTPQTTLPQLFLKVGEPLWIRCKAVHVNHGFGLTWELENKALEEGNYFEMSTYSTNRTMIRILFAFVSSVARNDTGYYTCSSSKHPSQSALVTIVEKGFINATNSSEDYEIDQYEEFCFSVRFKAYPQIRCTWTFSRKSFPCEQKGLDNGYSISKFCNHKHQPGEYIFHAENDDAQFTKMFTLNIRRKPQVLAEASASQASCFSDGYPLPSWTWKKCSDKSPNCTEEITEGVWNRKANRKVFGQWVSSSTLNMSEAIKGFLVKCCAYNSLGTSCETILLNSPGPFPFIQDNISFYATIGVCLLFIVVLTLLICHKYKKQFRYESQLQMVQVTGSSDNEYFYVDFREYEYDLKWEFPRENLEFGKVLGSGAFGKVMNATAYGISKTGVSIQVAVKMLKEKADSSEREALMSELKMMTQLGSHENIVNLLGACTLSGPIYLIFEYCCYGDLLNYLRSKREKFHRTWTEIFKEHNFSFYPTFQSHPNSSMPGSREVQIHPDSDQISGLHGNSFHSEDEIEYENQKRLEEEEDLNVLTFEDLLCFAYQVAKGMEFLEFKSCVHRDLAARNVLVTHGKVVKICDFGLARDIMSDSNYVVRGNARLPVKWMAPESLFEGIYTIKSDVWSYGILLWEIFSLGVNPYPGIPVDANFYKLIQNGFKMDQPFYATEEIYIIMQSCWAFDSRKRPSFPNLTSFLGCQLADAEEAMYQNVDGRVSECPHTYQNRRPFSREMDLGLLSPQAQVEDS

[4] = molecular target: Mast/stem cell growth factor receptor Kit (Homo sapiens, UniProt P10721); test: Inhibition of KIT
[5] = molecular target: Platelet-derived growth factor receptor beta (Homo sapiens, UniProt P09619); test: Inhibition of PDGFRbeta
[6] = molecular target: T2, Tyrosine-protein kinase receptor UFO (Homo sapiens, UniProt P30530); test: Inhibition of Axl
T2 sequence (P30530 whole entry): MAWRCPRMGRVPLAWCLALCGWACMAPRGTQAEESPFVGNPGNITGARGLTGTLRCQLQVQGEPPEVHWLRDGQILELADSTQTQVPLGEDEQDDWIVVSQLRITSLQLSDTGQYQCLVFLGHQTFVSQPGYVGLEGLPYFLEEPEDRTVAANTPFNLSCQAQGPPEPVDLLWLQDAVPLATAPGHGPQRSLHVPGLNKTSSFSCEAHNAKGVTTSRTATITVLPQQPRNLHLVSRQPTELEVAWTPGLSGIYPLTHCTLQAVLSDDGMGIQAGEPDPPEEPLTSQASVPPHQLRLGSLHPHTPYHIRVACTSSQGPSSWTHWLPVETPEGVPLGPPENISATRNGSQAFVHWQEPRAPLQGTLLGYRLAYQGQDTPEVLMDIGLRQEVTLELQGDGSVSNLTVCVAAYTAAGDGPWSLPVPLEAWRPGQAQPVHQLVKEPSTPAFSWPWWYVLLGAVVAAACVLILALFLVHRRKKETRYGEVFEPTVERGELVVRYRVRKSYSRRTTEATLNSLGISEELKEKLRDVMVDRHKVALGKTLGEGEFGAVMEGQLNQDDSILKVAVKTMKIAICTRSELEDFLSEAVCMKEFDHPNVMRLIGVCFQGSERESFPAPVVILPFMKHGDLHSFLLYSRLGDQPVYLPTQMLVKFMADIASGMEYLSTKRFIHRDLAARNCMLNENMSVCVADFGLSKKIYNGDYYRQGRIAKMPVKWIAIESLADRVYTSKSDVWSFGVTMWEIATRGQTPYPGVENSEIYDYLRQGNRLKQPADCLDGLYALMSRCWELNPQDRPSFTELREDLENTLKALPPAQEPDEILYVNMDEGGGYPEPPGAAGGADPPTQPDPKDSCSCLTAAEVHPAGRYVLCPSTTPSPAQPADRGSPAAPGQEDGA

[7] = molecular target: High affinity nerve growth factor receptor (Homo sapiens, UniProt P04629); test: Inhibition of TrkA
[8] = Inhibition of IRKbeta
[9] = molecular target: Proto-oncogene tyrosine-protein kinase Src (Homo sapiens, UniProt P12931); test: Inhibition of Src
[10] = molecular target: T3, Adenosine receptor A3 (Homo sapiens) (UniProt P0DMS8); test: Inhibition of human A3 receptor at 10 uM
T3 sequence (whole entry): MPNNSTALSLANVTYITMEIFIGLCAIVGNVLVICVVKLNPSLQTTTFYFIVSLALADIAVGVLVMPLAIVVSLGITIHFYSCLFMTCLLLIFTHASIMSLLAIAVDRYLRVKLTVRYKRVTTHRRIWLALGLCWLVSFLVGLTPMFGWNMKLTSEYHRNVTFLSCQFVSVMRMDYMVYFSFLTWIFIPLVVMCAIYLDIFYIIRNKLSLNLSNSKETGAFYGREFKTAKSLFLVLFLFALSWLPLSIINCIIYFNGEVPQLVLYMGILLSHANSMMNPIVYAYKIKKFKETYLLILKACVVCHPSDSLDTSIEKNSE

[11] = molecular target: Adenosine receptor A2a (Homo sapiens) (UniProt P29274); test: Inhibition of human A2A receptor at 10 uM
[12] = Clearance in rat at 2 mg/kg, iv; type: ADME, organism-based; parameters: dose 2 mg/kg, route intravenous; details: in vivo
[13] = Volume of distribution in rat at 2 mg/kg, iv; type: ADME, organism-based; parameters: dose 2 mg/kg, route intravenous; details: in vivo
[14] = Bioavailability in rat 10 mg/kg, po; type: ADME, organism-based; details: in vivo
Mus musculus [15] = test: Inhibition of LPS-induced TNFalpha production in Swiss Webster mouse plasma at 20 mg/kg, ip after 90 mins; type: functional; parameters: scale not given: the % may be the effect or the level left; details: route intraperitoneal
Mus musculus [16] = test: Inhibition of LPS-induced TNFalpha production in Swiss Webster mouse plasma at 50 mg/kg, ip after 90 mins; type: functional; parameters: scale not given: the % may be the effect or the level left; details: route intraperitoneal
[17] = molecular target: T4, Macrophage colony-stimulating factor 1 receptor (Homo sapiens, UniProt P07333)
Description: Inhibition of ATP-induced CSF1R autophosphorylation

[18] = molecular target: T4, Macrophage colony-stimulating factor 1 receptor; test: Inhibition of CSF1R
[19] = molecular target: T3, Adenosine receptor A3 (Homo sapiens); test: Inhibition of human A3 receptor at 5 uM

T4 sequence (P07333 whole entry): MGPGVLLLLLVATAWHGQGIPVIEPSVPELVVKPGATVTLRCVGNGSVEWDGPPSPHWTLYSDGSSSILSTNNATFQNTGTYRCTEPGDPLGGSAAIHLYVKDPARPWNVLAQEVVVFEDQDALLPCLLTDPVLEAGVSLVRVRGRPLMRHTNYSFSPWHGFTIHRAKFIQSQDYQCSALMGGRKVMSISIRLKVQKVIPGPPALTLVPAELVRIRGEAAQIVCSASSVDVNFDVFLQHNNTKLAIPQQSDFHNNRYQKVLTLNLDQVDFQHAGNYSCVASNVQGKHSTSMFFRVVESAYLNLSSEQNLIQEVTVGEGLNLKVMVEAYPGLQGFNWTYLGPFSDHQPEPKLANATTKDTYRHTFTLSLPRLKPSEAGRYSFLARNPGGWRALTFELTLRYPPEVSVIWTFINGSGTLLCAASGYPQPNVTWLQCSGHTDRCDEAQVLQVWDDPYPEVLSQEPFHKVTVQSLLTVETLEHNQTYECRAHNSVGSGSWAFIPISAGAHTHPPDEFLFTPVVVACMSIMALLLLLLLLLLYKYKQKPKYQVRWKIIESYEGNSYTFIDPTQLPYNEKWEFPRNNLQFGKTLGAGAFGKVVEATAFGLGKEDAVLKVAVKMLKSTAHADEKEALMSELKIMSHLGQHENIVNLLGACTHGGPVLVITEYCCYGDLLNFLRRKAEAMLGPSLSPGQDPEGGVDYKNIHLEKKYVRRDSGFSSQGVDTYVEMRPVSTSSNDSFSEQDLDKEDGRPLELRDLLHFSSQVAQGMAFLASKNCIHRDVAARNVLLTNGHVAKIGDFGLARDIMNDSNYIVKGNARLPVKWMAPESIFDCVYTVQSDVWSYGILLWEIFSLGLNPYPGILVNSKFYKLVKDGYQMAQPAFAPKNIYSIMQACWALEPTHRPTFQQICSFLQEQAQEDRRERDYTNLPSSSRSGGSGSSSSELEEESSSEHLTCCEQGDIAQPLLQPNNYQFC
Sequence of Platelet-derived growth factor receptor beta (P09619 whole entry): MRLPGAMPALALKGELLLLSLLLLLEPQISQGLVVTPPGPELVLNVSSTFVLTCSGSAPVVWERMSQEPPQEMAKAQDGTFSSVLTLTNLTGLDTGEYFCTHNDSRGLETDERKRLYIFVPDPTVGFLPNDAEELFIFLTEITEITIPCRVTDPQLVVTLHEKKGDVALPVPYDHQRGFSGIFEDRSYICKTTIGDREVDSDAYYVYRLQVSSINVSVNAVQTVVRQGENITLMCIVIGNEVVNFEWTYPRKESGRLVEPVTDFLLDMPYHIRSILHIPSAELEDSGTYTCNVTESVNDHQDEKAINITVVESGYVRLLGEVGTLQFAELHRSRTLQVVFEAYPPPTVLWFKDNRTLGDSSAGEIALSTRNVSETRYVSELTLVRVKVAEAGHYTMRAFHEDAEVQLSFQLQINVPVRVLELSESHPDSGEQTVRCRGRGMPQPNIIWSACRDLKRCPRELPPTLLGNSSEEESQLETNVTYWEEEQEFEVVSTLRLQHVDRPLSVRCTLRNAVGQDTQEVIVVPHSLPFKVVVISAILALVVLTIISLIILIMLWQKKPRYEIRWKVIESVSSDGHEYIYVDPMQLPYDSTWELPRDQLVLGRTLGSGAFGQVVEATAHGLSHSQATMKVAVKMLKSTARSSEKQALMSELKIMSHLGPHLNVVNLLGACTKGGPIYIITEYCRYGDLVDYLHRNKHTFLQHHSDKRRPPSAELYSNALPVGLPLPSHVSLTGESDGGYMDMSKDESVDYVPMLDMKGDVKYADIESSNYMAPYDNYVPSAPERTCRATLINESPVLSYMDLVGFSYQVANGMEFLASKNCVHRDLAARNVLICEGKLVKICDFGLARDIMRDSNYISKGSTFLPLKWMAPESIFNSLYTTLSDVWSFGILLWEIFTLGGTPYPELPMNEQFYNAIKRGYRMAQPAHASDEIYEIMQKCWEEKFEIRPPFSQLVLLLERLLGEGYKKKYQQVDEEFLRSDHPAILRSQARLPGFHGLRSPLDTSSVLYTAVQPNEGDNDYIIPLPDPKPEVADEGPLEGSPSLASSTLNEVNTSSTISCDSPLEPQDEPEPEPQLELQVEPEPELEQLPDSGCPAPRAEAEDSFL
Sequence of Proto-oncogene tyrosine-protein kinase Src (P12931 2-536 limits assumed): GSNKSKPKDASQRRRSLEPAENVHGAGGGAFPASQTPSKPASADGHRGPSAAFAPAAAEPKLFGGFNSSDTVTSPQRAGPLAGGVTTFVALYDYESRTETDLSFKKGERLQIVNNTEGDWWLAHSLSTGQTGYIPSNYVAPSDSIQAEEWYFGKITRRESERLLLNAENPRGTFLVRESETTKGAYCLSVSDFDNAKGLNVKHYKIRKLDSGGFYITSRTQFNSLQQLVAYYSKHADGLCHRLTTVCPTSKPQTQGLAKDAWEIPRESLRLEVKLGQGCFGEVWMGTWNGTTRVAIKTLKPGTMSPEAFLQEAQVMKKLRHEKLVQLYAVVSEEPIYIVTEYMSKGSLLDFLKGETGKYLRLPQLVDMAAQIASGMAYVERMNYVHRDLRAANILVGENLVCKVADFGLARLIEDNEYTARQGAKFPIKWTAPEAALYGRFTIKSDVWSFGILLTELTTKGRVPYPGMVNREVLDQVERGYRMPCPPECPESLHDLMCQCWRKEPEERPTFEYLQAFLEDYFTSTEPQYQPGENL
Sequence of Mast/stem cell growth factor receptor Kit (P10721 whole entry): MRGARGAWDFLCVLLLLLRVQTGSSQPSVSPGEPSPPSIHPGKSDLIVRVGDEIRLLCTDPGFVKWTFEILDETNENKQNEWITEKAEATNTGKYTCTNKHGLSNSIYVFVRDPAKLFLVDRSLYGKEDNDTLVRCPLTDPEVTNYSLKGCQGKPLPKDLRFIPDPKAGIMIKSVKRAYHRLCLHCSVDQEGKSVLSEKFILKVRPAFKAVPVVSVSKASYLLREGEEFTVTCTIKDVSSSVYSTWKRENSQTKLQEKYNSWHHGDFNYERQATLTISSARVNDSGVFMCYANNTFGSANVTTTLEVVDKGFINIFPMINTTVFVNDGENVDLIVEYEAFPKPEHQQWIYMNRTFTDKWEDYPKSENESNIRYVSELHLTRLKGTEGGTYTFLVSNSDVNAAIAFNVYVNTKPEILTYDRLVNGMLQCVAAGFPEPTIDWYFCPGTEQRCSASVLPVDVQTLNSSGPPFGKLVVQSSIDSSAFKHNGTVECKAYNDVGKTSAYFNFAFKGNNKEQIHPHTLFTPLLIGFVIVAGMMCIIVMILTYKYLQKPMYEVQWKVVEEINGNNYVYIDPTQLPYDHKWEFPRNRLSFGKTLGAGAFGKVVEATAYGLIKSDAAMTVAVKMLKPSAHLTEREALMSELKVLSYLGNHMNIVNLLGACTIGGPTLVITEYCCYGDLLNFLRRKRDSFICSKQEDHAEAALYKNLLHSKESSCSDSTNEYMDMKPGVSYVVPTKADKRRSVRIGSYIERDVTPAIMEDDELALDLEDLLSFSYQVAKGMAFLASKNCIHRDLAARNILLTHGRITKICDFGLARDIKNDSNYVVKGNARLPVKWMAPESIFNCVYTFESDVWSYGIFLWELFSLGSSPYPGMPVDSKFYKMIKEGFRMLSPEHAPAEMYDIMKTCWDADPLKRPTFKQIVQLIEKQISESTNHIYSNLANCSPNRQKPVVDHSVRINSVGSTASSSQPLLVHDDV
Sequence of High affinity nerve growth factor receptor (P04629 whole entry): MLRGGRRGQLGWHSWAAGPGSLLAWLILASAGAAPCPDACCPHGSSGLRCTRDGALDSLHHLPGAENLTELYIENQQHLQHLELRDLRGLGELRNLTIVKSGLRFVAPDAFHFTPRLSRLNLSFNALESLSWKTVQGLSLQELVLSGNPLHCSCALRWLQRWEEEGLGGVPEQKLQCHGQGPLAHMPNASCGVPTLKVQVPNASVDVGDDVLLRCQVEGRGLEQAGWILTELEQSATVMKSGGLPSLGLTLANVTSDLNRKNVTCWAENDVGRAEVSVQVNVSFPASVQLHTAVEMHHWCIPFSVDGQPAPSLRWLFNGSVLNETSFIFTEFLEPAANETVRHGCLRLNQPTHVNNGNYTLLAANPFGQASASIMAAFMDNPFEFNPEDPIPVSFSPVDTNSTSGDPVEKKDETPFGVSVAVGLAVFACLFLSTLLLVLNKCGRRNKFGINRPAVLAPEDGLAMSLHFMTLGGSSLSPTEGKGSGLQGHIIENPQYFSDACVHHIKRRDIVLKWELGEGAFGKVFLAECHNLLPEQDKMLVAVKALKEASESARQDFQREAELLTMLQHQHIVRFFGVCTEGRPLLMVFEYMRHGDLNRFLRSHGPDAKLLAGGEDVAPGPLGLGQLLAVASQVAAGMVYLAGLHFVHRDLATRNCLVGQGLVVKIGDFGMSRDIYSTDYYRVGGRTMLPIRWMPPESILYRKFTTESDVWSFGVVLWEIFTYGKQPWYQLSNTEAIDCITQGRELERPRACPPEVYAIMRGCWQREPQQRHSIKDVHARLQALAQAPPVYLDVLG
Sequence of Adenosine receptor A2a (Homo sapiens) (P29274 whole entry): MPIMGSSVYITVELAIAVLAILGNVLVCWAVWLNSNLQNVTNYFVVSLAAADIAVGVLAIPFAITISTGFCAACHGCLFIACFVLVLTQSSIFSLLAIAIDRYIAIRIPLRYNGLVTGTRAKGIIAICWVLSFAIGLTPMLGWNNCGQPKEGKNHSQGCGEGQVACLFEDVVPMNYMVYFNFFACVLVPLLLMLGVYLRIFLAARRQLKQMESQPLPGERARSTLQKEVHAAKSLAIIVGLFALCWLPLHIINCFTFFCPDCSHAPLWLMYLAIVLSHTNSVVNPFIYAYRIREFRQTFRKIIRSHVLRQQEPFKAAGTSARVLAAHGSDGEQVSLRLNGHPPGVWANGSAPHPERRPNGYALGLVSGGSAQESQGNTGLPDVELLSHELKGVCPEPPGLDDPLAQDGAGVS

SMILES: NC(=O)c1cn(-c2ccc3c(c2)CCC3)c2nc(Nc3ccc(C4CCNCC4)cc3)ncc2c1=O
pIC50 (Macrophage): 7.29

SMILES: NC(=O)c1cn(-c2ccc3c(c2)CCC3)c2nc(Nc3ccc(C[C@H]4COC(=O)N4)cc3)ncc2c1=O
pIC50 (Macrophage): 7.05

SMILES: CN1CCN(c2cccc(Nc3ncc4c(=O)c(C(N)=O)cn(-c5ccc6c(c5)CCC6)c4n3)c2)CC1
pIC50 (Macrophage): 8.22

SMILES: NC(=O)c1cn(-c2ccc3c(c2)CCC3)c2nc(Nc3cccc(C(=O)N4CCCCC4)c3)ncc2c1=O
pIC50 (Macrophage): 7.85

SMILES: CCOC(=O)c1nc2cnc(Nc3ccccc3)nc2n(-c2ccccc2)c1=O [PTERIDINONE]
pIC50 [18]: 6.74

SMILES: CC1CN(c2ccc(Nc3ncc4c(=O)c(C(N)=O)cn(-c5ccc6c(c5)CCC6)c4n3)cc2)CC(C)N1 (centres undefined)
pIC50 (Macrophage): 8.52

SMILES: NC(=O)c1cn(-c2ccc3c(c2)CCC3)c2nc(Nc3ccc(N4CCNCC4)cc3)ncc2c1=O
pIC50 (Macrophage): 8.40

SMILES: CN1CCN(CCCNc2ncc3c(=O)c(C(N)=O)cn(-c4ccc5c(c4)CCC5)c3n2)CC1
pIC50 [17]: 5.74

SMILES: NC(=O)c1cn(-c2ccc3c(c2)CCC3)c2nc(Nc3ccccc3)ncc2c1=O
pIC50 [17]: 6.55

Second part, led by results:

remaining at 10 min [1]: 74%
remaining at 10 min [2]: 54%
pIC50 [3]: 9.00
pIC50 [4]: 7.55
pIC50 [5]: < 5.70
pIC50 [6]: < 6.30
pIC50 [7]: 6.51
pIC50 [8]: < 5.70
pIC50 [9]: 5.82
inhibition [10]: 60%
inhibition [11]: 58%
clearance [12]: 29 mL/min/kg
Vd [13]: 26.5 L/kg
bioavailability [14]: 4%
SMILES: CN1CCN(Cc2ccc(Nc3ncc4c(=O)c(C(N)=O)cn(-c5ccc6c(c5)CCC6)c4n3)cc2)CC1
pIC50 (Macrophage): 7.96
Activity (Mus musculus [15]): 81%
Activity (Mus musculus [16]): 87%

pIC50 [17]: 6.60
SMILES: CCOC(=O)c1cn(-c2ccc3c(c2)CCC3)c2nc(Nc3ccc(N4CCN(C)CC4)cc3)ncc2c1=O
pIC50 (Macrophage): 6.33

remaining at 10 min [1]: 58%
remaining at 10 min [2]: 83%
pIC50 [17]: 8.10
SMILES: NC(=O)c1cn(-c2ccc3c(c2)CCC3)c2nc(Nc3ccc(CCN4CCOCC4)cc3)ncc2c1=O
pIC50 (Macrophage): 8.10

remaining at 10 min [1]: 96%
remaining at 10 min [2]: 84%
SMILES: CN1CCN(CCc2ccc(Nc3ncc4c(=O)c(C(N)=O)cn(-c5ccc6c(c5)CCC6)c4n3)cc2)CC1
pIC50 (Macrophage): 8.05

pIC50 [18]: 7.89
remaining at 10 min [1]: 80.5%
remaining at 10 min [2]: 87.3%
pIC50 [3]: 8.52
pIC50 [4]: 7.25
pIC50 [5]: < 6.00
pIC50 [6]: < 6.52
pIC50 [7]: 6.70
pIC50 [8]: < 6.00
pIC50 [9]: 6.00
inhibition [19]: 55%
clearance [12]: 133 mL/min/kg
Vd [13]: 18.7 L/kg
SMILES: CN1CCN(c2ccc(Nc3ncc4c(=O)c(C(N)=O)cn(-c5ccc6c(c5)CCC6)c4n3)cc2)CC1
pIC50 (Macrophage): 7.80

remaining at 10 min [1]: 35%
remaining at 10 min [2]: 38%
SMILES: CN(C)Cc1ccc(Nc2ncc3c(=O)c(C(N)=O)cn(-c4ccc5c(c4)CCC5)c3n2)cc1
pIC50 (Macrophage): 8.40

remaining at 10 min [1]: 88%
remaining at 10 min [2]: 65%
SMILES: CN(C)CCc1ccc(Nc2ncc3c(=O)c(C(N)=O)cn(-c4ccc5c(c4)CCC5)c3n2)cc1
pIC50 (Macrophage): 7.80

remaining at 10 min [1]: 2.5%
remaining at 10 min [2]: 9.7%
pIC50 [17]: 7.66
SMILES: NC(=O)c1cn(-c2ccc3c(c2)CCC3)c2nc(Nc3ccc(CN4CCOCC4)cc3)ncc2c1=O
pIC50 (Macrophage): 7.57
